Source: US20020164266A1, “Microbicidal mixtures” (priority 2001, published 2002)

What was measured:
Type in all cases: cell-based
Bacillus subtilis = assay: Synergism (BNPD/MIT), MIC values for Bacillus subtilis; conditions: read-out: MIC values for Bacillus subtilis
Excerpt: (§1) The mixtures according to the invention have synergistic activity. The observed synergism can be determined by the following mathematical equation (see F. C. Kull, P. C. Elisman, H. D. Sylwestrowicz and P. K. Mayer, Appl. Microbiol. 9, 538 (1961): [formula]
(§2) Qa=the amount of component A in the active compound mixture which achieves the desired effect, i.e. no microbial growth.
(§3) QA=the amount of component A which, when used on its own, suppresses the growth of the microorganisms.
(§4) Qb=the amount of component B in the active compound mixture which suppresses the growth of the micoorganisms.
(§5) QB=the amount of component B which, when used on its own, suppresses the growth of the microorganisms.
(§6) A synergistic index of SI<1 indicates a synergistic effect for the mixture in question. […] All parts and percentages are by weight unless otherwise indicated.
Test pathogen: Bacillus subtilis
(§7) In brackets=mixing ratios of the pure active compounds

Pseudomonas fluorescens = assay: Synergism (BNPD/MIT), MIC values for Pseudomonas fluorescens; conditions: read-out: MIC values for Pseudomonas fluorescens
Excerpt: as §1, §2, §3, §4, §5, §6
Test pathogen: Pseudomonas fluorescens
as §7

Pseudomonas aeruginosa = assay: Synergism (BNPD/MIT), MIC values for Pseudomonas aeruginosa; conditions: read-out: MIC values for Pseudomonas aeruginosa
Excerpt: as §1, §2, §3, §4, §5, §6
Test pathogen: Pseudomonas aeruginosa
as §7

SMILES | MIC (Bacillus subtilis) | MIC (Pseudomonas fluorescens) | MIC (Pseudomonas aeruginosa)
O=[N+]([O-])C(Br)(CO)CO [BNPD, 2-bromo-2-nitropropanediol] | 10 µg/mL | 10 µg/mL | 10 µg/mL
Cn1sccc1=O [MIT, 2-methyl-2H-isothiazol-3-one] | 25 µg/mL | 10 µg/mL | 10 µg/mL
